# Measured values taken from publication PMC8144059 (Drug metabolism and pharmacokinetics, 2021).
# Target: CYP3A4.1 (WT) (Homo sapiens, UniProt P08684)
# Conditions: Figure 2, CYP3A4.1, TST 10–500 μM, n=5
# Sequence of CYP3A4.1 (WT) (P08684 2-503): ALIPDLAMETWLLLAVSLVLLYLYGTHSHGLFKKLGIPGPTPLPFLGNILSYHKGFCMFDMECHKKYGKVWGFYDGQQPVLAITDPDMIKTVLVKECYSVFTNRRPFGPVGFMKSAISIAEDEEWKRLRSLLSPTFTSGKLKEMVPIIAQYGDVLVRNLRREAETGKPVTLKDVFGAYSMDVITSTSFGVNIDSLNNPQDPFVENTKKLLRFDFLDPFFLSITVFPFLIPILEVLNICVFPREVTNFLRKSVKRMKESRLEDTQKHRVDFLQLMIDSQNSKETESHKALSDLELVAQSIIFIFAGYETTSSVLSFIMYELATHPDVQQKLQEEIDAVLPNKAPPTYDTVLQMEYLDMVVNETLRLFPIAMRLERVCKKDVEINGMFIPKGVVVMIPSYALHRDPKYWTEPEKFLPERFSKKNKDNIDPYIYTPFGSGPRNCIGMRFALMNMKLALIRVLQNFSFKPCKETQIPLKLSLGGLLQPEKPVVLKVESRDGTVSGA
structure (smiles),measurement,value
"OC(Cn1cncn1)(Cn1cncn1)c1ccc(F)cc1F [FCZ, fluconazole]",Inhibition of CYP3A4 activity (TST metabolism),inhibited CYP3A4 activity in a concentration-dependent manner
